Data: ChEMBL document CHEMBL5036318, “Synthesis and Biological Evaluation of Phosphoester and Phosphorothioate Prodrugs of STING Agonist 3',3'-c-Di(2'F,2'dAMP)” (J Med Chem, 2021)

Columns and labels:
[1] = target: T1, Stimulator of interferon genes protein (Homo sapiens, UniProt Q86WV6); assay: Activation of wild-type human STING expressed in human THP1-Dual cells co-expressing IRF3-activated ISRE assessed as IRF3 reporter activation measured after 7 hrs by luciferase reporter gene assay; format: cell-based
T1 sequence (Q86WV6 whole entry): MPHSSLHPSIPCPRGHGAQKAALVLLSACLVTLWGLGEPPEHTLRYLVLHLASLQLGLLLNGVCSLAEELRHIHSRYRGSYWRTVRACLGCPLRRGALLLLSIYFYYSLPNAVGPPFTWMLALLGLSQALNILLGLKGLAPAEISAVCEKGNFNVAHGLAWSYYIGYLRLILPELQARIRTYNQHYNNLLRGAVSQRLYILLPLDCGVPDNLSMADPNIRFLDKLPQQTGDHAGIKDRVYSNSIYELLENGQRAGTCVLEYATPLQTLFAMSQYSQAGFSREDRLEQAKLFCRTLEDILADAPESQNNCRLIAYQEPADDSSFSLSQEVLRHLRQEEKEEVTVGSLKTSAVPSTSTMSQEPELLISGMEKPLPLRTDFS

[2] = Induction of INF-gamma production in healthy human PBMC incubated for 16 hrs; format: functional, tissue-based
[3] = target: T1, Stimulator of interferon genes protein; assay: Activation of wild-type human STING expressed in digitonin treated human THP1-Dual cells co-expressing IRF3-activated ISRE assessed as IRF3 reporter activation measured after 30 mins by luciferase reporter gene assay; format: cell-based
[4] = Induction of INF-alpha production in healthy human PBMC incubated for 16 hrs; format: functional, tissue-based
[5] = Induction of TNF-alpha production in healthy human PBMC incubated for 16 hrs; format: functional, tissue-based
[6] = target: T1, Stimulator of interferon genes protein; assay: Activation of wild-type human STING expressed in HEK293T cells co-expressing IRF3-activated ISRE assessed as IRF3 reporter activation measured after 7 hrs by luciferase reporter gene assay; format: cell-based
[7] = target: T1, Stimulator of interferon genes protein; assay: Potency index, ratio of test compound EC50 to prodrug EC50 for activation of wild-type human STING expressed in HEK293T cells co-expressing IRF3-activated ISRE assessed as IRF3 reporter activation measured after 7 hrs by luciferase reporter gene assay; format: cell-based
[8] = target: T1, Stimulator of interferon genes protein; assay: Potency index, ratio of test compound EC50 to prodrug EC50 for activation of wild-type human STING expressed in digitonin treated THP1-Dual cells co-expressing IRF3-activated ISRE assessed as IRF3 reporter activation measured after 7 hrs by luciferase reporter gene assay; format: cell-based
[9] = target: T1, Stimulator of interferon genes protein; assay: Potency index, ratio of test compound EC50 to prodrug EC50 for activation of wild-type human STING expressed in human THP1-Dual cells co-expressing IRF3-activated ISRE assessed as IRF3 reporter activation measured after 30 mins by luciferase reporter gene assay; format: cell-based
[10] = target: T1, Stimulator of interferon genes protein; assay: Potency index, ratio of test compound EC50 to prodrug EC50 for activation of wild-type human STING expressed in HEK293T cells co-expressing IRF3-activated ISRE assessed as IRF3 reporter activation measured after 30 mins by luciferase reporter gene assay; format: cell-based
[11] = target: T1, Stimulator of interferon genes protein; assay: Activation of wild-type human STING expressed in HEK293T cells co-expressing IRF3-activated ISRE assessed as IRF3 reporter activation measured after 30 mins by luciferase reporter gene assay; format: cell-based
[12] = Potency index, ratio of test compound EC50 to prodrug EC50 for induction of TNF-alpha production in healthy human PBMC incubated for 16 hrs; format: functional
[13] = Potency index, ratio of test compound EC50 to prodrug EC50 for induction of INF-alpha production in healthy human PBMC incubated for 16 hrs; format: functional
[14] = Potency index, ratio of test compound EC50 to prodrug EC50 for induction of INF-gamma production in healthy human PBMC incubated for 16 hrs; format: functional
[15] = cells; details: Homo sapiens, HEK-293T
Description: Activation of human STING REF mutant expressed in digitonin treated HEK293T cells co-expressing IRF3-activated ISRE assessed as IRF3 reporter activation by luciferase reporter gene assay

[16] = Activation of human STING Q mutant expressed in digitonin treated HEK293T cells co-expressing IRF3-activated ISRE assessed as IRF3 reporter activation by luciferase reporter gene assay; format: cell-based; details: HEK-293T

EC50 [1] [nM] | EC50 [3] [nM] | EC50 [6] [nM] | EC50 [11] [nM] | EC50 [15] [nM] | SMILES | EC50 [2] [nM] | EC50 [4] [nM] | EC50 [5] [nM] | Ratio EC50 [7] | Ratio EC50 [8] | Ratio EC50 [9] | Ratio EC50 [10] | Ratio EC50 [12] | Ratio EC50 [13] | Ratio EC50 [14] | EC50 [16] [nM]
40 | 330 | 40 | – | – | Nc1ncnc2c1ncn2[C@@H]1O[C@@H]2CO[P@@](=O)(OCOC(=O)c3ccccc3)O[C@H]3[C@@H](F)[C@H](n4cnc5c(N)ncnc54)O[C@@H]3CO[P@](=O)(OCOC(=O)c3ccccc3)O[C@H]2[C@H]1F | 30 | 700 | 230 | – | – | – | – | – | – | – | –
150 | 970 | 450 | 1360 | – | CCC(CC)C(=O)OCO[P@]1(=O)OC[C@H]2O[C@@H](n3cnc4c(N)ncnc43)[C@H](F)[C@@H]2OP(=O)(O)OC[C@H]2O[C@@H](n3cnc4c(N)ncnc43)[C@H](F)[C@@H]2O1 | – | – | – | 18 | 7 | 20 | 71 | – | – | – | –
200 | 1710 | 320 | 1930 | – | CC(C)OC(=O)OCO[P@]1(=O)OC[C@H]2O[C@@H](n3cnc4c(N)ncnc43)[C@H](F)[C@@H]2OP(=O)(O)OC[C@H]2O[C@@H](n3cnc4c(N)ncnc43)[C@H](F)[C@@H]2O1 | – | – | – | 25 | 5 | 11 | 50 | – | – | – | –
– | – | – | – | 8410 | Nc1nc2c(ncn2[C@@H]2O[C@@H]3COP(=O)(O)O[C@H]4[C@@H](O)[C@H](n5cnc6c(=O)[nH]c(N)nc65)O[C@@H]4COP(=O)(O)O[C@H]3[C@H]2O)c(=O)[nH]1 | – | – | – | – | – | – | – | – | – | – | > 45000
50 | 350 | 30 | 230 | – | CCC(CC)C(=O)OCO[P@@]1(=O)OC[C@H]2O[C@@H](n3cnc4c(N)ncnc43)[C@H](F)[C@@H]2O[P@](=O)(OCOC(=O)C(CC)CC)OC[C@H]2O[C@@H](n3cnc4c(N)ncnc43)[C@H](F)[C@@H]2O1 | 30 | 260 | 70 | – | – | – | – | 432 | 195 | 285 | –
110 | 970 | 170 | 940 | – | CC(C)OC(=O)OCO[P@@]1(=O)OC[C@H]2O[C@@H](n3cnc4c(N)ncnc43)[C@H](F)[C@@H]2O[P@](=O)(OCOC(=O)OC(C)C)OC[C@H]2O[C@@H](n3cnc4c(N)ncnc43)[C@H](F)[C@@H]2O1 | 1470 | 1290 | 710 | – | – | – | – | 45 | 40 | 6 | –
20 | 110 | 10 | 70 | – | CCC(CC)C(=O)OCO[P@]1(=O)OC[C@H]2O[C@@H](n3cnc4c(N)ncnc43)[C@H](F)[C@@H]2O[P@](=O)(OCOC(=O)C(CC)CC)OC[C@H]2O[C@@H](n3cnc4c(N)ncnc43)[C@H](F)[C@@H]2O1 | 4 | 50 | 20 | – | – | – | – | 1485 | 985 | 2135 | –

More lines, now with the values behind:

SMILES | EC50 [1] [nM] | EC50 [3] [nM] | EC50 [6] [nM] | EC50 [11] [nM] | EC50 [15] [nM] | EC50 [2] [nM] | EC50 [4] [nM] | EC50 [5] [nM] | Ratio EC50 [7] | Ratio EC50 [8] | Ratio EC50 [9] | Ratio EC50 [10] | Ratio EC50 [12] | Ratio EC50 [13] | Ratio EC50 [14] | EC50 [16] [nM]
CC(C)(C)C(=O)OCO[P@]1(=O)OC[C@H]2O[C@@H](n3cnc4c(N)ncnc43)[C@H](F)[C@@H]2OP(=O)(O)OC[C@H]2O[C@@H](n3cnc4c(N)ncnc43)[C@H](F)[C@@H]2O1 | 180 | 500 | 130 | 460 | – | – | – | – | 61 | 6 | 38 | 212 | – | – | – | –
CC(C)(C)C(=O)OCS[P@@]1(=O)OC[C@H]2O[C@@H](n3cnc4c(N)ncnc43)[C@H](F)[C@@H]2O[P@](=O)(SCOC(=O)C(C)(C)C)OC[C@H]2O[C@@H](n3cnc4c(N)ncnc43)[C@H](F)[C@@H]2O1 | 20 | 30 | 40 | 40 | – | 50 | 70 | 100 | 3 | 18 | 94 | 14 | 82 | 260 | 222 | –
Nc1nc2c(ncn2[C@@H]2O[C@@H]3COP(=O)(O)O[C@H]4[C@@H](O)[C@H](n5cnc6c(N)ncnc65)O[C@@H]4COP(=O)(O)O[C@H]3[C@H]2O)c(=O)[nH]1 | – | – | – | – | 4260 | 15100 | 26700 | > 300000 | – | – | – | – | – | – | – | –
CC(C)(C)C(=O)OCS[P@]1(=O)OC[C@H]2O[C@@H](n3cnc4c(N)ncnc43)[C@H](F)[C@@H]2O[P@](=O)(SCOC(=O)C(C)(C)C)OC[C@H]2O[C@@H](n3cnc4c(N)ncnc43)[C@H](F)[C@@H]2O1 | 20 | 60 | 120 | 180 | – | 90 | 130 | 100 | 10 | 15 | 55 | 38 | 93 | 301 | 68 | –
CC(C)OC(=O)OCO[P@]1(=O)OC[C@H]2O[C@@H](n3cnc4c(N)ncnc43)[C@H](F)[C@@H]2O[P@](=O)(OCOC(=O)OC(C)C)OC[C@H]2O[C@@H](n3cnc4c(N)ncnc43)[C@H](F)[C@@H]2O1 | 30 | 380 | 30 | 310 | – | 160 | 360 | 350 | – | – | – | – | 90 | 414 | 51 | –
Nc1ncnc2c1ncn2[C@@H]1O[C@@H]2CO[P@@](=O)(OCOC(=O)c3ccccc3)O[C@H]3[C@@H](F)[C@H](n4cnc5c(N)ncnc54)O[C@@H]3COP(=O)(O)O[C@H]2[C@H]1F | 270 | 1740 | 400 | 3090 | – | – | – | – | 20 | 4 | 11 | 31 | – | – | – | –
Nc1nc2c(ncn2[C@@H]2O[C@@H]3COP(=O)(O)O[C@@H]4[C@H](O)[C@@H](COP(=O)(O)O[C@@H]2[C@@H]3O)O[C@H]4n2cnc3c(N)ncnc32)c(=O)[nH]1 | 2630 | 28500 | 11700 | 85100 | – | 11500 | 17300 | 72600 | – | – | – | – | – | – | – | 170
CC(C)(C)C(=O)OCS[P@@]1(=O)OC[C@H]2O[C@@H](n3cnc4c(N)ncnc43)[C@H](F)[C@@H]2O[P@@](=O)(SCOC(=O)C(C)(C)C)OC[C@H]2O[C@@H](n3cnc4c(N)ncnc43)[C@H](F)[C@@H]2O1 | 50 | 80 | 70 | 40 | – | 1190 | 720 | 180 | 23 | 159 | 152 | 62 | 146 | 41 | 8 | –
